According to patent publication US12209142B2, “SARS-CoV-2 epitope-targeted peptide immunostimulants” (Institute for Systems Biology, priority 2020, dated 2025):
“Also recorded” adds a separate entry of the source. Where a SMILES comes first, the peptide text is derived from it. Bridges are numbered along the chain shown (N, C = ends). Triazole bridges read from a SMILES are 1,4-linked. [ ]: non-standard residue; d: D form. The star is where a group is joined. Biotin = O=C1N[C@H]2[C@H](CS[C@H]2CCCCC(=O)*)N1; Lys(N3) = [N-]=[N+]=NCCCC[C@H](N)C(=O)O; PEG5 = NCCOCCOCCOCCOCCOCCC(=O)O; Pra = C#CC[C@H](N)C(=O)O

What was measured:
[1] = test system: Escherichia coli (E. coli) cells; test: Whole-cell ELISA of biotinylated PCC binding; conditions: biotinylated PCC at 5 μM
Procedure: Whole-cell ELISAs. Detection of the binding of biotinylated PCCs to bacterial surface was performed as follows. 108 bacteria from a culture grown overnight were used for each test. Bacteria were incubated with PBS containing 1% BSA (PBS-BSA) for 1 h at 37° C., washed once with PBS, and then incubated with 5 μM of the biotinylated PCC in PBS-BSA for 1 h at 37° C. After washing thrice with PBS to remove unbound PCCs, bacteria were incubated with Streptavidin-HRP (1:1000) for 1 h at 37° C. Bacteria were washed thoroughly and the TMB reagent was added until visible coloration was observed. The reaction was quenched using 2N H2SO4 and absorbance was measured at 450 nm.

[2] = test system: MrkA synthetic epitopes (SynEp 1-4); test: Epitope selectivity sandwich ELISA with immobilized SynEps; type: binding, Klebsiella pneumoniae; conditions: DNP-conjugated ligand at 500 nM, anti-DNP detection
Procedure: The particular epitope target to which cy(LLFFF) (SEQ ID NO:5) binds was next identified. A sandwich ELISA was performed in which the biotinylated SynEps were immobilized. The lead ligand cy(LLFFF) (SEQ ID NO:5), conjugated to a 2,4-dinitrophenyl (DNP) moiety, was titrated at a 500 nM concentration, and anti-DNP was used as a detection antibody. […] A background level for this assay was established using a biotinylated 6-mer polyethylene glycol (biotin-PEG6). […] As the native epitope for SynEp1 has a GRAVY score of 1.01, while the native versions of other SynEps range between −0.9 and −0.28, the negative ELISA signals may arise from the relatively high hydrophobicity of SynEp 1 versus others. The blocking may also result from the reactivity of the cysteine residue in SynEp 1. […] (SEQ ID NO:2) in native MrkA.
In vitro ELISA assays. ELISA assays for MrkA-binding and epitope selectivity were performed on clear NeutrAvidin Coated High Capacity Plates (ThermoFisher, 15507). The buffer used for all washes and to dissolve all compounds was TBST+0.1% BSA (TBS+0.05% Tween 20+0.1% BSA, pH 7.3) and, unless otherwise stated, steps were conducted at room temperature. Each wash involved a brief 20 s agitation, and all conjugation, blocking, and incubation steps were performed with gentle agitation over the entire stated time period. […]

[3] = test system: MrkA-expressing K. pneumoniae cells; test: Whole-cell ELISA of biotinylated PCC binding
[4] = molecular target: T1, full-length recombinant MrkA protein (Klebsiella pneumoniae, UniProt P12267); test: Sandwich ELISA of PCC binding to full-length MrkA; conditions: sandwich ELISA, biotinylated PCC immobilized
T1 construct: purchased MyBiosource MBS1248970
T1 sequence (P12267 23-202): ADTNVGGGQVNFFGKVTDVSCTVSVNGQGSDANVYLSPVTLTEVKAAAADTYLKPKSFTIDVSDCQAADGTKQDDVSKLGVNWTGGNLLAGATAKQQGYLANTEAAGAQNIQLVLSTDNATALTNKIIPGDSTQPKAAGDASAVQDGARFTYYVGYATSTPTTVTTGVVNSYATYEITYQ
Procedure: The screen yielded 26 hits (Table 2) that were sequenced, scaled up, and tested for binding to full-length recombinant MrkA in solution by single-point sandwich Enzyme-linked immunoassays (ELISAs) (FIG. 8). HPraGly is present before X1 in each peptide and Az4 follows X5 in each peptide.
An alanine scan was performed to establish which residues of cy(LLFFF) (SEQ ID NO:5) contribute most to MrkA binding. In this assay, a sandwich ELISA is used to quantify the affinity of several cy(LLFFF) (SEQ ID NO:5) analogues, in which one residue is substituted with an alanine, towards full-length MrkA protein. The ELISA results in FIG. 4 show lower signal for every alanine-substituted cy(LLFFF) (SEQ ID NO:5) analogue compared to unmodified cy(LLFFF) (SEQ ID NO:5), establishing that the native compound has the highest affinity. […] Thus, these two C-terminal phenylalanine residues (FIG. 3A, arrows in inset) play critical roles in MrkA binding, and are targets for modifications to improve binding. Another important detail of these alanine scan results is a strong dependence of MrkA binding on the residue position, independent of residue type. For example, cy(LLAFF) (SEQ ID NO:9) and cy(LLFFA) (SEQ ID NO:11) have very different binding affinities, despite having the same phenylalanine-to-alanine substitution.
In vitro ELISA assays. ELISA assays for MrkA-binding and epitope selectivity were performed on clear NeutrAvidin Coated High Capacity Plates (ThermoFisher, 15507). The buffer used for all washes and to dissolve all compounds was TBST+0.1% BSA (TBS+0.05% Tween 20+0.1% BSA, pH 7.3) and, unless otherwise stated, steps were conducted at room temperature. Each wash involved a brief 20 s agitation, and all conjugation, blocking, and incubation steps were performed with gentle agitation over the entire stated time period. The general procedure for an ELISA assay was: wash 3×200 μL/well, conjugate with 2 μM of biotinylated compound for 2 h at room temperature (100 μL/well), wash 3×200 μL/well, blocked overnight in 5 wt % milk at 4° C., wash […] with wash buffer, incubate with titrated compound (e.g., MrkA or epitope) for 1 h, […], incubate with primary antibody […] for 1 h (100 μL/well), wash 3×200 μL/well, incubate with 1:2,000 anti-rabbit secondary antibody-horseradish peroxidase conjugate (Cell signaling Technologies, 7074S) for 1 h, 3×200 μL/well, develop with the Microwell Peroxidase Substrate System (2-C) (SeraCare, 5120-0047) using 100 μL/well for 1-40 minutes, and quench using 1 M H2SO4 (aq.) at 100 μL/well. For MrkA binding assays, biotinylated PCCs were conjugated to the well surface, recombinant MrkA with an N-terminal 6×His-SUMO-tag (MyBiosource, MBS1248970) was titrated at the desired concentration, and the primary antibody was His-tag antibody, pAb, Rabbit (Genscript, A00174) at a 1:5,000 dilution. For epitope selectivity assays, biotinylated SynEps were conjugated, DNP-conjugated AR-PCCs were titrated at a desired concentration, and the primary antibody was anti-DNP antibody produced in Rabbit (Sigma-Aldrich, D9656) at a 1:8,000 dilution. […] For binding tests in the context of mouse sera, the “titrated compound” described in the steps above was dispersed in a solution containing the desired concentration of mouse serum.

[5] = strain BAA 1705, PCC 5 μM or lower

CC(C)C[C@@H]1NC(=O)[C@@H](NC(=O)CCOCCOCCOCCOCCOCCNC(=O)CCCC[C@@H]2SC[C@@H]3NC(=O)N[C@@H]32)Cc2cn(nn2)CCCC[C@@H](C(N)=O)NC(=O)[C@H](Cc2ccccc2)NC(=O)[C@H](Cc2ccccc2)NC(=O)[C@H](Cc2ccccc2)NC(=O)[C@H](CC(C)C)NC1=O [cy(LLFFF)] ({Biotin-PEG5}-[Pra]LLFFF[Lys(N3)]-NH2; triazole 1-7; N-terminus and C-terminus assumed)
whole-cell ELISA signal, E. coli [1]: small absorbances; also recorded: only weak signals
binding to synthetic epitopes (SynEp selectivity) [2]: preferably bind synthetic epitope 2; also recorded: highest signals from SynEp 2; also recorded: selectively binds synthetic epitope 2 versus other targeted epitopes
whole-cell ELISA signal, MrkA-knockout KPPR1 ([3]; MrkA/B/C knockout KPPR1): ELISA intensities comparable to baseline
whole-cell ELISA signal, K. pneumoniae BAA 1705 and BAA 2146 ([3]; biotinylated PCC at 5 μM): high absorbance; also recorded: strong signal; also recorded: binds two strains of MrkA-expressing K. pneumoniae cells with excellent selectivity versus E. coli and S. typhimurium
whole-cell ELISA signal at high PCC concentration, LB or G-CAA ([3]; strain BAA 1705, 50 μM PCC): strong and comparable ELISA signals
whole-cell ELISA 450 nm absorbance, cells cultured in G-CAA (high MrkA) [3, 5]: strong absorbances
whole-cell ELISA 450 nm absorbance, cells cultured in LB (low MrkA) [3, 5]: near-baseline absorbances
whole-cell ELISA signal, wild type KPPR1 ([3]; wild type KPPR1 (ATCC 43816), G-CAA media, 5 μM down to 5 nM): strong signals; also recorded: binds wild type MrkA-expressing KPPR1 cells
EC50 [4]: 0.05 µM
